These results are taken from PMC4759478, “Novel EGFR inhibitors attenuate cardiac hypertrophy induced by angiotensin II” (Journal of Cellular and Molecular Medicine, 2016).

Test [1] concerns primary neonatal rat cardiomyocytes. Kind of test: Ang II-stimulated primary neonatal rat cardiomyocytes (Western blot, RT-qPCR). Type of test: cell-based. The note with it: 10 μM pre-treatment 2h, Ang II 1 μM 15min. As for the experimental part: Cells were incubated with a DMEM medium that contained 5.5 mmol/L of D-glucose.
Figure S1. Effects of EGFR inhibitos in Ang II-stimulated primary neonatal rat cardiomyocytes. […] The cell lysates were collected and p-EGFR/EGFR (A) and p-AKT/p-ERK/GAPDH (B) were detected by Western Blot analysis. […] The cell lysates were collected and MyHC/GAPDH was detected by Western Blot analysis. […] The mRNA levels of ANP (D), β/α-MyHC (E), and SKA (F) were detected by RT-qPCR assay.

The test system of test [2] is EGFR signalling in H9c2 cells. The conditions noted are these: 10 μM pre-treatment 2 hrs, EGF 100 ng/ml 15 min, Western blot. Here is the method:
(§1) Cells or heart tissues (30–50 mg) were lysated. […] Each PVDF membrane was incubated with specific antibodies.
On the technique in general: Immunoblotting shows a protein as a band on a membrane.

Test [3] deals with AngII-induced cardiac hypertrophy in C57BL/6 mice. Kind of test: Echocardiography and heart weight/bodyweight in AngII-induced cardiac hypertrophy mice. It counts as in vivo, mouse. The note with it: AngII-treated C57BL/6 mice, 20 mg/kg/day for 2 weeks, n = 7. Here is the method:
Cardiac hypertrophy was induced in 6‐week‐old C57BL/6 mice by a […] subcutaneous injection of AngII (0.5 mg/kg/2 days for 2 weeks) in phosphate buffer (pH 7.2), as described previously 18. Mice in vehicle control group and Ang II group received 1% CMC‐Na solution alone in the same schedule as compound‐treated groups. Animals were killed under sodium pentobarbital anaesthesia. After mice was killed, heart tissues were embedded in 4% paraformaldehyde for pathological analysis and/or snap‐frozen in liquid nitrogen for gene and protein expression analysis. In addition, the blood was collected from the right ventricle using a heparin‐containing syringe with a needle at the time of death.
At the day before the sacrifice, Doppler analysis was performed to ensure that pathologic cardiac hypertrophy was induced. The internal diameter and wall thickness of left ventricle (LV) were assessed by echocardiography 19. Hearts of the killed mice were dissected and weighted to compare heart weight/bodyweight (mg/kg) ratios in mice. Mice was anaesthetized with isoflurane, echocardiography was performed by SONOS 5500 ultrasound (Philips Electronics, Amsterdam, the Netherlands) with a 15‐MHz linear array ultrasound transducer. The LV was assessed in both parasternal long‐axis and short‐axis views at a frame rate of 120 Hz. End‐systole or end‐diastole was defined as the phase in which the smallest or largest area of LV respectively. LV posterior wall (LVPW) and LV internal dimension (LVID) were measured from LV M‐model tracing with a sweep speed of 50 mm/sec. at the mid‐papillary muscle level.

For a further test, the system named is H9c2 cells. Kind of test: EGF-induced hypertrophy of H9c2 cells (Western blot, RT-qPCR, immunofluorescence). It counts as cell-based, rat. The note with it: pre-treatment 2 hrs (AG1478 10 μM; 542/543 1-10 μM), EGF 100 ng/ml 6 hrs (mRNA) or 12 hrs (MyHC). Here is the method:
as §1

The test system of test [4] is heart tissues of Ang II-treated C57BL/6 mice. Kind of test: Heart histopathology, Masson fibrosis staining, RT-qPCR and immunohistochemistry in Ang II-treated mice. Type of test: in vivo, mouse. The note with it: Ang II 2 weeks. As for the experimental part:
Cardiac hypertrophy was induced in 6-week-old C57BL/6 mice by a […] subcutaneous injection of AngII (0.5 mg/kg/2 days for 2 weeks) in phosphate buffer (pH 7.2), as described previously 18. Mice in vehicle control group and Ang II group received 1% CMC-Na solution alone in the same schedule as compound-treated groups. Animals were killed under sodium pentobarbital anaesthesia. After mice was killed, heart tissues were embedded in 4% paraformaldehyde for pathological analysis and/or snap-frozen in liquid nitrogen for gene and protein expression analysis. In addition, the blood was collected from the right ventricle using a heparin-containing syringe with a needle at the time of death. […] Hearts were fixed in 4% paraformaldehyde and embedded in paraffin. The paraffin sections (5 μm) were stained with haematoxylin and eosin. To estimate the extent of damage, the specimen was observed under a light microscope (×200 amplification; Nikon, Tokyo, Japan). After deparaffinization and rehydration, 5 μm heart sections were treated with 3% H2O2 for 30 min. and with 1% BSA in PBS for 30 min. Slides were incubated overnight at 4°C with primary antibody (1:50) then incubated with secondary antibody (1:100; Santa Cruz Biotech) for 1 hr and DAB (A: B = 1: 20) for 5 min. at room temperature. At last the cell nuclei were stained with haematoxylin for 5 min., the sections were dehydrated and the images were viewed by a light microscope (×200 amplification; Nikon). Tissues were fixed in paraformaldehyde solution and embedded in paraffin. Paraffin sections (5 μm) of the heart tissues were stained with Masson to evaluate the fibrosis content. The stained sections then were viewed by light microscope (×200 amplification; Nikon).

Test [5] deals with EGFR signalling in H9c2 cells. Kind of test: Ang II-induced EGFR/AKT/ERK phosphorylation in H9c2 cells (Western blot). The conditions noted are these: Ang II 1 μM 15 min. Type of test: cell-based, rat. Here is the method: as §1
In test [6] the test system is c-Src phosphorylation in H9c2 cells. Kind of test: Ang II-induced c-Src phosphorylation in H9c2 cells (Western blot). It counts as cell-based, rat. The note with it: 10 μM pre-treatment 2 hrs, Ang II 1 μM 15 min. Here is the method: as §1

For the compound `COc1cc2ncnc(Nc3cccc(Cl)c3)c2cc1OC` [AG1478], the “Ang II-increased phosphorylation of EGFR in primary cardiomyocytes” value in test [1] is on record as “markedly reversed”. Further, in test [2], the “activation of EGFR and downstream signalling (EGFR, AKT, ERK phosphorylation) induced by EGF” value is recorded as “inhibits”. For the same compound, in test [3], the HR came to 345.83 ± 70.87, the “HW (mg)/BW (g)” value is recorded as 5.68 ± 0.62 mg/g, the “LVIDd (diastole left ventricle internal dimension)” value turned out to be 2.90 ± 0.26 mm and the “LVIDs (systolic left ventricle internal dimension)” value worked out at 1.57 ± 0.21 mm. Also, in test [3], the “LVPW (left ventricle posterior wall)” value was determined as 0.88 ± 0.03 mm and the VS came to 0.95 ± 0.02 mm. Also, in the test with H9c2 cells, the “EGF-induced overexpression of pro-hypertrophic genes (MyHC, ANP, BNP, β/α-MyHC, SKA)” value is “significantly inhibited”. The “cardiac EGFR signalling pathway activation (p-EGFR, p-ERK, p-AKT immunohistochemical staining)” value in test [4] (20 mg/kg) is on record as “significantly inhibited”. Besides, the “Ang II-induced increases in heart expression of hypertrophic genes ANP, BNP, β/α-MyHC, SKA (RT-qPCR)” value in test [4] (AG1478 20 mg/kg/day, 542 at both dosages (5 and 20 mg/kg/day)) is listed as “significantly blocked”. In test [4] (daily treatment), the “Ang II-induced heart structural abnormalities (haematoxylin and eosin staining)” value is given as “significantly attenuated”. Besides, in test [5] (AG1478 10 μM, 542/543 1, 2.5, 5 or 10 μM pre-treatment 2 hrs), the “activation of EGFR and downstream signalling (EGFR, AKT, ERK phosphorylation) induced by Ang II” value is given as “inhibits”.

In the case of `CC(C)(C)n1nc(-c2ccc(Cl)cc2)c2c(N)ncnc21` [PP2], the “Ang II-induced phosphorylation of c-Src” value in test [6] is recorded as “almost totally inhibited”. In addition, the “Ang II-induced phosphorylation of EGFR” value in test [5] (PP2 10 μM pre-treatment 2 hrs) is recorded as “almost totally inhibited”.
